Measurements taken from article PMC11589570, “Critical assessment of LC3/GABARAP ligands used for degrader development and ligandability of LC3/GABARAP binding pockets” (Nature Communications, 2024).
Read-outs that look alike come from different tables or passages of the source.

Molecular target: GABARAP (Homo sapiens, UniProt O95166)
Type: binding
Set-up: CSP induced: unit not given here
Conditions: for CSP: GABARAP:TH152 molar ratio 1:2

Sequence of GABARAP (O95166 1-116): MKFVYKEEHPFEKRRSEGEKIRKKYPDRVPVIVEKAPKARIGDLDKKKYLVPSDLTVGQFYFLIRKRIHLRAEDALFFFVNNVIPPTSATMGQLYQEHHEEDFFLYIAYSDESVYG

Structure (SMILES): CCCCCCC(Sc1nc(Cl)cc(Nc2nc(-c3ccc(C(=O)O)cc3)cs2)n1)C(=O)O (centres unmarked) [compound 21]
- CSP induced (F77 HN resonance, molar ratio TH152:GABARAP 0.125): 0.00585
- CSP induced (F77 HN resonance, molar ratio TH152:GABARAP 0.25): 0.01072
- CSP induced (F77 HN resonance, molar ratio TH152:GABARAP 0.5): 0.01977
- CSP induced (F77 HN resonance, molar ratio TH152:GABARAP 1): 0.04412
- CSP induced (F77 HN resonance, molar ratio TH152:GABARAP 2): 0.07555
- CSP induced (F77 HN resonance, molar ratio TH152:GABARAP 4): 0.08937
- interaction in 2D NMR titration (GABARAP): interacted with TH152 via the LDS binding site
- CSP (GABARAP residue A36): 0.025 ppm
- CSP (GABARAP residue A39): 0.019 ppm
- CSP (GABARAP residue A72): 0.005 ppm
- CSP (GABARAP residue A75): 0.00571 ppm
- CSP (GABARAP residue A108): 0.038 ppm
- CSP (GABARAP residue D27): 0.012 ppm
- CSP (GABARAP residue D43): 0.019 ppm
- CSP (GABARAP residue D45): 0.052 ppm
- CSP (GABARAP residue D54): 0.019 ppm
- CSP (GABARAP residue D74): 0.004 ppm
- CSP (GABARAP residue D102): 0.027 ppm
- CSP (GABARAP residue D111): 0.080 ppm
- CSP (GABARAP residue E7, estimated): 0.005 ppm
- CSP (GABARAP residue E8): 0.010 ppm
- CSP (GABARAP residue E12): 0.005 ppm
- CSP (GABARAP residue E17): 0.025 ppm
- CSP (GABARAP residue E19): 0.021 ppm
- CSP (GABARAP residue E34): 0.056 ppm
- CSP (GABARAP residue E73): 0.015 ppm
- CSP (GABARAP residue E97): 0.019 ppm
- CSP (GABARAP residue E100): 0.010 ppm
- CSP (GABARAP residue E101, estimated): 0.015 ppm
- CSP (GABARAP residue E112): 0.029 ppm
- CSP (GABARAP residue F3): 0.007 ppm
- CSP (GABARAP residue F11): 0.00637 ppm
- CSP (GABARAP residue F60): 0.060 ppm
- CSP (GABARAP residue F62): 0.051 ppm
- CSP (GABARAP residue F77): 0.076 ppm
- CSP (GABARAP residue F78): 0.035 ppm
- CSP (GABARAP residue F79): 0.034 ppm
- CSP (GABARAP residue F103): 0.019 ppm
- CSP (GABARAP residue F104): 0.027 ppm
- CSP (GABARAP residue G18): 0.016 ppm
- CSP (GABARAP residue G42): 0.033 ppm
- CSP (GABARAP residue G58): 0.028 ppm
- CSP (GABARAP residue G116): 0.011 ppm
- CSP (GABARAP residue H9, estimated): 0.005 ppm
- CSP (GABARAP residue H69): 0.044 ppm
- CSP (GABARAP residue H98): 0.018 ppm
- CSP (GABARAP residue H99): 0.035 ppm
- CSP (GABARAP residue I21): 0.030 ppm
- CSP (GABARAP residue I32): 0.077 ppm
- CSP (GABARAP residue I41): 0.054 ppm
- CSP (GABARAP residue I64): 0.020 ppm
- CSP (GABARAP residue I68): 0.084 ppm
- CSP (GABARAP residue I107): 0.011 ppm
- CSP (GABARAP residue K2): 0.014 ppm
- CSP (GABARAP residue K6, estimated): 0.005 ppm
- CSP (GABARAP residue K13): 0.013 ppm
- CSP (GABARAP residue K20): 0.009 ppm
- CSP (GABARAP residue K23): 0.019 ppm
- CSP (GABARAP residue K24): 0.039 ppm
- CSP (GABARAP residue K35): 0.019 ppm
- CSP (GABARAP residue K38): 0.015 ppm
- CSP (GABARAP residue K46): 0.079 ppm
- CSP (GABARAP residue K47): 0.091 ppm
- CSP (GABARAP residue K48): 0.061 ppm
- CSP (GABARAP residue K66): 0.014 ppm
- CSP (GABARAP residue L44): 0.040 ppm
- CSP (GABARAP residue L50): 0.088 ppm
- CSP (GABARAP residue L55): 0.088 ppm
- CSP (GABARAP residue L63): 0.085 ppm
- CSP (GABARAP residue L70): 0.021 ppm
- CSP (GABARAP residue L76): 0.043 ppm
- CSP (GABARAP residue L105): 0.011 ppm
- CSP (GABARAP residue M1): 0.016 ppm
- CSP (GABARAP residue N81): 0.019 ppm
- CSP (GABARAP residue P10, estimated): 0.005 ppm
- CSP (GABARAP residue P26, estimated): 0.080 ppm
- CSP (GABARAP residue P30, estimated): 0.060 ppm
- CSP (GABARAP residue P37, estimated): 0.020 ppm
- CSP (GABARAP residue P52, estimated): 0.030 ppm
- CSP (GABARAP residue Q59): 0.033 ppm
- CSP (GABARAP residue Q96): 0.025 ppm
- CSP (GABARAP residue R14, estimated): 0.005 ppm
- CSP (GABARAP residue R15, estimated): 0.005 ppm
- CSP (GABARAP residue R22): 0.015 ppm
- CSP (GABARAP residue R28): 0.021 ppm
- CSP (GABARAP residue R40): 0.023 ppm
- CSP (GABARAP residue R65): 0.067 ppm
- CSP (GABARAP residue R67): 0.024 ppm
- CSP (GABARAP residue R71): 0.007 ppm
- CSP (GABARAP residue S16): 0.016 ppm
- CSP (GABARAP residue S53): 0.013 ppm
- CSP (GABARAP residue S110): 0.015 ppm
- CSP (GABARAP residue S113): 0.021 ppm
- CSP (GABARAP residue T56): 0.032 ppm
- CSP (GABARAP residue V29): 0.058 ppm
- CSP (GABARAP residue V31): 0.082 ppm
- CSP (GABARAP residue V33): 0.031 ppm
- CSP (GABARAP residue V51): 0.069 ppm
- CSP (GABARAP residue V57): 0.065 ppm
- CSP (GABARAP residue V80): 0.037 ppm
- CSP (GABARAP residue V114): 0.00433 ppm
- CSP (GABARAP residue Y25): 0.070 ppm
- CSP (GABARAP residue Y49): 0.168 ppm
- CSP (GABARAP residue Y61): 0.053 ppm
- CSP (GABARAP residue Y106): 0.025 ppm
- CSP (GABARAP residue Y109): 0.022 ppm
- CSP (GABARAP residue Y115): 0.00181 ppm
- CSP induced (K46 HN resonance, molar ratio TH152:GABARAP 0.125): 0.0126
- CSP induced (K46 HN resonance, molar ratio TH152:GABARAP 0.25): 0.02165
- CSP induced (K46 HN resonance, molar ratio TH152:GABARAP 0.5): 0.03932
- CSP induced (K46 HN resonance, molar ratio TH152:GABARAP 1): 0.07004
- CSP induced (K46 HN resonance, molar ratio TH152:GABARAP 2): 0.07915
- CSP induced (K46 HN resonance, molar ratio TH152:GABARAP 4): 0.08104
- CSP induced (Y25 HN resonance, molar ratio TH152:GABARAP 0.125): 0.00667
- CSP induced (Y25 HN resonance, molar ratio TH152:GABARAP 0.25): 0.01133
- CSP induced (Y25 HN resonance, molar ratio TH152:GABARAP 0.5): 0.01934
- CSP induced (Y25 HN resonance, molar ratio TH152:GABARAP 1): 0.03193
- CSP induced (Y25 HN resonance, molar ratio TH152:GABARAP 2): 0.06979
- CSP induced (Y25 HN resonance, molar ratio TH152:GABARAP 4): 0.08466
